For test [1], the system named is CMV-specific T cells. Particulars: read-out: EC50, IFNγ secretion by CMV-specific T cells; FIG. 10A-C.
For the next test, the target named is T1, Human PD-L1/PD-1 (Homo sapiens, UniProt Q9NZQ7).
T1 construct: made in house; host or cells: HEK293T
The experiment in a line: HTRF PD-1-Ig/PD-L1-His binding assay (human PD-L1). Put shortly:
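Interaction of Fc-tagged soluble PD-1 with His-tagged soluble PD-L1 is monitored by time-resolved FRET. Donor is europium cryptate anti-Ig (1 nM final) and acceptor is APC anti-His (20 nM final). Assay buffer is dPBS with 0.1% BSA and 0.05% Tween-20.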
A general note: TR-FRET usually uses a lanthanide donor and a delayed reading to cut background.

Test [2] addresses CMV-specific T cells (Homo sapiens, UniProt Q9NZQ7). The experiment in a line: CMV-specific T cell function assay (IFNγ secretion, ELISA). It is filed as cell-based. On the procedure: CMV-specific T Cell Function Assay. […] AIM-V medium (Life Technologies, Grand Island, N.Y.) supplemented with 10% heat-inactivated fetal bovine serum (FBS, Sigma, St Louis, Mo.) was used at a total volume of 200 µL/well in triplicate. The cells were cultured for 4 days at 37° C., 5% CO2 at which time culture supernatant was harvested for determination of secreted IFNγ by ELISA (OptEIA hIFNγ ELISA Kit, BD Biosciences, San Jose, Calif.).
(In general: An ELISA detects its analyte on a solid surface through an enzyme-linked reagent.)

The target of test [3] is T2, LK35.2-hPD-L1 cells / PE-labeled PD-1-Ig (Homo sapiens, UniProt Q9NZQ7).
T2 construct: expressed in transfected cells; host or cells: LK35.2 mouse B cell line
T2 sequence (Q9NZQ7 19-290): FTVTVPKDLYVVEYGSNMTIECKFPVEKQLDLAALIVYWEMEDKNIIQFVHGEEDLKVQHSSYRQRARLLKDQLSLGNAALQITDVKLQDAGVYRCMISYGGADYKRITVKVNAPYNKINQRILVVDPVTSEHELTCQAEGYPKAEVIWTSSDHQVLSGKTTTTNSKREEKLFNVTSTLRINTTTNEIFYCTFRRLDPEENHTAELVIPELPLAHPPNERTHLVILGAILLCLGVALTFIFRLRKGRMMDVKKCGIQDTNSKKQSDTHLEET
The experiment in a line: LK35.2-hPD-L1 cell binding high-content screening assay. It is filed as cell-based. The conditions noted are these: cell binding assay, cell line not given. Put shortly: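 Binding of PE-conjugated human PD-1-Ig (1 nM final) to human PD-L1 stably expressed on a mouse B-cell line (LK35.2) was measured by high-content imaging after washes. Compound and labeled PD-1-Ig were co-incubated 1 h at 37 °C with cells in RPMI/10% FCS.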

A further test has as its target Hu PD-L1/PD-1 (Homo sapiens, UniProt Q9NZQ7). The experiment in a line: Cell binding assay Hu PD-L1/PD-1 (Tables 11-13, cell line not given). The conditions noted are these: Table 11. The class given is cell-based. A digest of the protocol:
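Three formats. In the L2987 imaging assay, natively PD-L1-expressing cells received inhibitor and PE-PD-1-Ig for 1 h at 37 °C, followed by fixation and nuclear Hoechst staining. In the flow-cytometry assays, LK35.2 cells overexpressing hPD-L1 were pre-treated 15 min with inhibitor, then bound 2 nM PE-PD-1-Ig for 1 h at RT in RPMI/2% FCS, while Jurkat-PD-1 cells bound PE-PD-L1-Ig.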

[4] abbreviates: Table 6, read-out: HTRF Human PD-L1/PD-1 Binding Assay IC50.
The mark [5] stands for this setting: value given instead of cluster, read-out: CMV Recall EC50 value.
Where [6] appears, read: value given instead of cluster, read-out: HTRF IC50 value.
Where [7] appears, read: value given instead of cluster, read-out: CBA IC50 value.

Like-named read-outs stand apart in the source and are kept apart here. Positions of bridges follow the written chain, without caps; N, C: chain ends. Non-standard residues stand in square brackets, D forms with d. Residues, ends and D or L forms follow the SMILES beside them. ξ: configuration not given here. Hyp = O=C(O)[C@@H]1C[C@@H](O)CN1; NMeNle = CCCC[C@H](NC)C(=O)O; NMeA = CN[C@@H](C)C(=O)O; Dap = NC[C@H](N)C(=O)O; ξP = O=C(O)C1CCCN1; Sar = CNCC(=O)O

T1 sequence (Q9NZQ7 with tags, fused parts or gaps): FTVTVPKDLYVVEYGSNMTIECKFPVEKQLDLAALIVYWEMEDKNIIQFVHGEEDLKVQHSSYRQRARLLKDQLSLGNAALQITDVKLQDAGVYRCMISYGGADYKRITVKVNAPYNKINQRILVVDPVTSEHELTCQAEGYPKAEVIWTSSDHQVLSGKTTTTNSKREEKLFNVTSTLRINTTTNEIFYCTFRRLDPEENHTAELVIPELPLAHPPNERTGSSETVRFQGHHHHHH
CMV-specific T cells (Homo sapiens, UniProt Q9NZQ7), sequence (Q9NZQ7 19-290): as the sequence (Q9NZQ7 19-290) above
Hu PD-L1/PD-1, sequence (Q9NZQ7 19-290): as above

On to `CCCC[C@H]1C(=O)N(C)[C@@H](CCCC)C(=O)N[C@@H](CCCNC(=N)N)C(=O)N[C@H](C(=O)NCC(N)=O)CSCC(=O)N[C@@H](Cc2ccccc2)C(=O)N(C)[C@@H](C)C(=O)N[C@@H](CC(N)=O)C(=O)N2CCCC2C(=O)N[C@@H](Cc2cnc[nH]2)C(=O)N[C@@H](CC(C)C)C(=O)N(C)CC(=O)N[C@@H](Cc2c[nH]c3ccccc23)C(=O)N[C@@H](CO)C(=O)N[C@@H](Cc2c[nH]c3ccccc23)C(=O)N1C` (stereo partly drawn) [Compound No. 1] ({CH2CO}-F[NMeA]N[ξP]HL[Sar]WSW[NMeNle][NMeNle]RCG-NH2; thioether N-14), for which the EC50 in the test with CMV-specific T cells [1] was 400 nM. In addition, the IC50 on Human PD-L1/PD-1 (setting [4]) was 9 nM; on Human PD-L1/PD-1 (Table 8, Compound No. 1 variant macrocyclic peptides, read-out: HTRF Human PD-L1/PD-1 Binding Assay IC50), 9 nM.
Turning to `CC[C@H](C)[C@@H]1NC(=O)[C@H](CC(C)C)NC(=O)[C@H](Cc2ccccc2)NC(=O)CSC[C@@H](C(=O)NCC(N)=O)NC(=O)[C@H](CCCNC(=N)N)NC(=O)[C@H](Cc2ccccc2)NC(=O)[C@H](C(C)C)NC(=O)[C@H](CCCNC(=N)N)NC(=O)[C@H](CC(=O)O)NC(=O)[C@H](CCCNC(=N)N)NC(=O)[C@H]([C@@H](C)CC)NC(=O)[C@H](C(C)C)NC1=O` [Compound No. 99] (HELM PEPTIDE1{[O=C(C[*:3])[*:2]].F.L.I.V.I.R.D.R.V.F.R.C.G.[am]}$PEPTIDE1,PEPTIDE1,1:R3-13:R3$$$V2.0), in the test with CMV-specific T cells [1], the EC50 was > 10000 nM. The IC50 on Human PD-L1/PD-1 (setting [4]) was found to be 153 nM; at Human PD-L1/PD-1 (Table 7, Compound No. 99 variant macrocyclic peptides, read-out: HTRF Human PD-L1/PD-1 Binding Assay IC50), 153 nM.
For the compound `CCCC[C@H]1C(=O)N(C)[C@@H](CCCC)C(=O)N[C@@H](CC(C)C)C(=O)N[C@H](C(=O)NCC(N)=O)CSCC(=O)N[C@@H](Cc2ccc(O)cc2)C(=O)N(C)[C@@H](C)C(=O)N[C@@H](CC(N)=O)C(=O)N2CCC[C@H]2C(=O)N[C@@H](CN)C(=O)N[C@@H](CCC(=O)O)C(=O)N2C[C@H](O)C[C@H]2C(=O)N[C@@H](Cc2c[nH]c3ccccc23)C(=O)N[C@@H](CO)C(=O)N[C@@H](Cc2c[nH]c3ccccc23)C(=O)N1C` [Example 5071] ({CH2CO}-Y[NMeA]NP[Dap]E[Hyp]WSW[NMeNle][NMeNle]LCG-NH2; thioether N-14), on CMV-specific T cells [2] (setting [5]), the EC50 was found to be 14 nM. Moreover, the IC50 stood at 10.5 nM on Human PD-L1/PD-1 (setting [6]) and 1.01 nM in test [3] (setting [7]).
Consider `CCCC[C@H]1C(=O)N(C)CC(=O)N[C@@H](CC(=O)O)C(=O)N[C@@H](C(C)C)C(=O)N(C)[C@@H](Cc2ccccc2)C(=O)N[C@@H](Cc2ccc(O)cc2)C(=O)N(C)CC(=O)N[C@@H](Cc2c[nH]c3ccccc23)C(=O)N[C@@H](Cc2ccc(O)cc2)C(=O)N[C@@H](CC(C)C)C(=O)N[C@H](C(=O)NCC(N)=O)CSCC(=O)N[C@@H](Cc2ccccc2)C(=O)N(C)[C@@H](Cc2ccccc2)C(=O)N1C` [Compound No. 71] (HELM PEPTIDE1{[O=C(C[*:3])[*:2]].F.[meF].[CCCC[C@@H](C(=O)[*:2])N(C)[*:1]].[Sar].D.V.[meF].Y.[Sar].W.Y.L.C.G.[am]}$PEPTIDE1,PEPTIDE1,1:R3-14:R3$$$V2.0), for which, in the test on CMV-specific T cells [1], the EC50 was 300 nM. Moreover, the IC50 is 10 nM on Hu PD-L1/PD-1; 7 nM on Human PD-L1/PD-1 (setting [4]); 7 nM on Human PD-L1/PD-1 (Table 9, Compound No. 71 variant macrocyclic peptides, read-out: HTRF Human PD-L1/PD-1 Binding Assay IC50).
In the case of `CCCC[C@H]1C(=O)N(C)[C@@H](CCCC)C(=O)N[C@@H](CC(C)C)C(=O)N[C@H](C(=O)NCC(N)=O)CSCC(=O)N[C@@H](Cc2ccccc2)C(=O)N(C)[C@@H](C)C(=O)N[C@@H](CC(N)=O)C(=O)N2CCCC2C(=O)N[C@@H](Cc2cnc[nH]2)C(=O)N[C@@H](Cc2c[nH]cn2)C(=O)N[C@@H](CO)C(=O)N[C@@H](Cc2c[nH]c3ccccc23)C(=O)N[C@@H](CCCNC(=N)N)C(=O)N[C@@H](Cc2c[nH]c3ccccc23)C(=O)N1C` (stereo partly drawn) [Compound No. 2] ({CH2CO}-F[NMeA]N[ξP]HHSWRW[NMeNle][NMeNle]LCG-NH2; thioether N-14), the EC50 in the test with CMV-specific T cells [1] is 400 nM. At Hu PD-L1/PD-1, this compound had an IC50 of 43 nM.
Consider `CCCC[C@H]1C(=O)N(C)[C@@H](CCCC)C(=O)N[C@@H](CO)C(=O)N[C@H](C(=O)NCC(N)=O)CSCC(=O)N[C@@H](Cc2ccc(O)cc2)C(=O)N(C)[C@@H](C)C(=O)N[C@@H](CC(=O)O)C(=O)N2CCC[C@H]2C(=O)N[C@@H](CO)C(=O)N[C@@H](CO)C(=O)N2C[C@H](O)C[C@H]2C(=O)N[C@@H](Cc2c[nH]c3ccccc23)C(=O)N[C@@H](CO)C(=O)N[C@@H](Cc2c[nH]c3ccccc23)C(=O)N1C` [Example 5117] ({CH2CO}-Y[NMeA]DPSS[Hyp]WSW[NMeNle][NMeNle]SCG-NH2; thioether N-14), for which the EC50 at CMV-specific T cells [2] (setting [5]) came to 103 nM. Further, the IC50 at Human PD-L1/PD-1 (setting [6]) stood at 5.33 nM; in test [3] (setting [7]) it was 6.75 nM.
Consider `CCCC[C@H]1C(=O)N[C@@H](CCCNC(=N)N)C(=O)NC(C(=O)NCC(N)=O)CSCC(=O)N[C@@H](Cc2ccc(O)cc2)C(=O)N(C)[C@@H](C)C(=O)N[C@@H](CC(N)=O)C(=O)N2CCC[C@H]2C(=O)N[C@@H](Cc2cnc[nH]2)C(=O)N[C@@H](CC(C)C)C(=O)N2C[C@H](O)C[C@H]2C(=O)N[C@@H](Cc2c[nH]c3ccccc23)C(=O)N[C@@H](CO)C(=O)N[C@@H](Cc2c[nH]c3ccccc23)C(=O)N(C)[C@@H](C)C(=O)N1C` (stereo partly drawn) [Example 9057], for which the EC50 on CMV-specific T cells [2] (numeric value, read-out: CMV Recall EC50 values) stood at 112 nM. In addition, the IC50 stood at 14.9 nM on Human PD-L1/PD-1 (numeric value, read-out: HTRF IC50 values) and 19.5 nM in test [3] (numeric value, read-out: CBA IC50 values).

By EC50 is commonly meant the concentration needed to bring the measured effect to its halfway point.

Source of the values: patent US9850283B2, “Macrocyclic inhibitors of the PD-1/PD-L1 and CD80(B7-1)/PD-L1 protein/protein interactions” (BRISTOL-MYERS SQUIBB COMPANY, priority 2013, dated 2017).
